The supplement of paper PMC11061612

Assays:
Assay in all cases: combination Emax (second highest fraction inhibited in the dose matrix, 72 h); higher = more inhibition; extreme values may be limits of the assay
NB10 (Neuroblastoma) = test system: NB10 (Neuroblastoma)
Summary of the method: (§1)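 Cell lines grown in DMEM/F12 or RPMI with 10% FBS were plated in 1536-well plates and held 24 hours at 37°C, 5% CO2 before 72 hours of exposure to two-drug dose matrices, with DMSO typically at 0.2%. CellTiter-Glo 2.0 luminescence gave viability, which was converted to inhibition. Vehicle wells were set to 0 and blank wells to 1. Combination Emax is the second-highest inhibition in the matrix, and Bliss excess is the observed combination effect minus the expected EA + EB − EA·EB, where EA and EB are the single-agent effects.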

[1] = test system: RO82-W-1 (Thyroid Gland Carcinoma)
Summary of the method: as §1

[2] = test system: ME-1 (Acute Myeloid Leukemia)
Summary of the method: as §1

[3] = test system: TCCSUP (Bladder Carcinoma)
Summary of the method: as §1

[4] = test system: HO-1-N-1 (Oral Cavity Carcinoma)
Summary of the method: as §1

ES4 (Ewing's Sarcoma) = test system: ES4 (Ewing's Sarcoma)
Summary of the method: as §1

HOS (Osteosarcoma) = test system: HOS (Osteosarcoma)
Summary of the method: as §1

[5] = test system: HCC-78 (Lung Adenocarcinoma)
Summary of the method: as §1

[6] = test system: SK-ES-1 (Ewing's Sarcoma)
Summary of the method: as §1

[7] = test system: Daoy (Other Solid Carcinomas)
Summary of the method: as §1

[8] = test system: HT-1376 (Bladder Carcinoma)
Summary of the method: as §1

[9] = test system: Hs-578-T (Breast Carcinoma)
Summary of the method: as §1

42-MG-BA (Glioblastoma) = test system: 42-MG-BA (Glioblastoma)
Summary of the method: as §1

T98G (Glioblastoma) = test system: T98G (Glioblastoma)
Summary of the method: as §1

[10] = test system: NCI-H2085 (Non-Small Cell Lung Carcinoma)
Summary of the method: as §1

[11] = test system: Ramos-2G6-4C10 (Burkitt's Lymphoma)
Summary of the method: as §1

[12] = test system: UM-UC-3 (Bladder Carcinoma)
Summary of the method: as §1

[13] = test system: CCRF-CEM (T-Lymphoblastic Leukemia)
Summary of the method: as §1

[14] = test system: DEL (T-Cell Non-Hodgkin's Lymphoma)
Summary of the method: as §1

[15] = test system: KURAMOCHI (Ovarian Carcinoma)
Summary of the method: as §1

In the case of CN(CCO)CC[C@H](CSc1ccccc1)Nc1ccc(S(=O)(=O)NC(=O)c2ccc(N3CCC([C@@H](O)c4ccccc4-c4ccc(Cl)cc4)CC3)cc2)cc1S(=O)(=O)C(F)(F)F [AZD4320] + C[C@@H](Nc1cc(F)cc(F)c1)c1cc(C(=O)N(C)C)cc2c(=O)cc(N3CCOCC3)oc12 [AZD8186] (first compound max 1 µM, 7x7, partner max 3 µM), the “combination Emax” value (NB10 (Neuroblastoma)) is reported as 0.78, the “combination Emax” value [1] is reported as 0.521 and the “combination Emax” value [2] is reported as 1. For the same compound, the “combination Emax” value [3] was 0.417, the “combination Emax” value [4] was 0.735 and the “combination Emax” value (ES4 (Ewing's Sarcoma)) was 0.849. The “combination Emax” value (HOS (Osteosarcoma)) was 0.37, the “combination Emax” value [5] was 0.528 and the “combination Emax” value [6] was 0.987. For the same compound, the “combination Emax” value [7] was 0.837, the “combination Emax” value [8] was 0.551 and the “combination Emax” value [9] was 0.874. For the same compound, the “combination Emax” value (42-MG-BA (Glioblastoma)) was 0.757, the “combination Emax” value (T98G (Glioblastoma)) was 0.482 and the “combination Emax” value [10] was 0.584. The “combination Emax” value [11] was 0.685, the “combination Emax” value [12] was 0.374 and the “combination Emax” value [13] was 1. The “combination Emax” value [14] was 0.888 and the “combination Emax” value [15] was 0.548.

For CN(CCO)CC[C@H](CSc1ccccc1)Nc1ccc(S(=O)(=O)NC(=O)c2ccc(N3CCC([C@@H](O)c4ccccc4-c4ccc(Cl)cc4)CC3)cc2)cc1S(=O)(=O)C(F)(F)F [AZD4320] + Cc1cc2ncnn2cc1Nc1ncc2c(n1)n(C1CCOCC1)c(=O)n2C [AZD7648] (first compound max 1 µM, 7x7, partner max 10 µM), the “combination Emax” value (NB10 (Neuroblastoma)) was 0.172, the “combination Emax” value [1] was 0.395 and the “combination Emax” value [2] was 1. For the same compound, the “combination Emax” value [3] was 0.268, the “combination Emax” value [4] was 0.226 and the “combination Emax” value (ES4 (Ewing's Sarcoma)) was 0.619. The “combination Emax” value (HOS (Osteosarcoma)) was 0.134, the “combination Emax” value [5] was 0.175 and the “combination Emax” value [6] was 0.911. For the same compound, the “combination Emax” value [7] was 0.152, the “combination Emax” value [8] was 0.786 and the “combination Emax” value [9] was 0.63. The “combination Emax” value (42-MG-BA (Glioblastoma)) was 0.312, the “combination Emax” value (T98G (Glioblastoma)) was 0.255 and the “combination Emax” value [10] was 0.177. For the same compound, the “combination Emax” value [11] was 0.718, the “combination Emax” value [12] was 0.121 and the “combination Emax” value [13] was 1. The “combination Emax” value [14] was 0.315 and the “combination Emax” value [15] was 0.161.

With CN(CCO)CC[C@H](CSc1ccccc1)Nc1ccc(S(=O)(=O)NC(=O)c2ccc(N3CCC([C@@H](O)c4ccccc4-c4ccc(Cl)cc4)CC3)cc2)cc1S(=O)(=O)C(F)(F)F [AZD4320] + Cn1cnc2c(F)c(Nc3ccc(Br)cc3Cl)c(C(=O)NOCCO)cc21 [Selumetinib] (first compound max 1 µM, 7x7, partner max 3 µM) the “combination Emax” value (NB10 (Neuroblastoma)) was 0.887, the “combination Emax” value [1] was 0.538 and the “combination Emax” value [2] was 1. For the same compound, the “combination Emax” value [3] was 0.405, the “combination Emax” value [4] was 0.619 and the “combination Emax” value (ES4 (Ewing's Sarcoma)) was 0.823. The “combination Emax” value (HOS (Osteosarcoma)) was 0.368, the “combination Emax” value [5] was 0.305 and the “combination Emax” value [6] was 0.983. For the same compound, the “combination Emax” value [7] was 0.817, the “combination Emax” value [8] was 0.687 and the “combination Emax” value [9] was 0.812. The “combination Emax” value (42-MG-BA (Glioblastoma)) was 0.694, the “combination Emax” value (T98G (Glioblastoma)) was 0.277 and the “combination Emax” value [10] was 0.367. The “combination Emax” value [11] was 0.472, the “combination Emax” value [12] was 0.332 and the “combination Emax” value [13] was 0.993. For the same compound, the “combination Emax” value [14] was 0.858 and the “combination Emax” value [15] was 0.584.

For COc1nnc2ccc(N3CCC(c4ccc(OCCN5CCN(C)C(=O)[C@H]5C)cc4)CC3)nn12 [AZD5153] + C=CCn1c(=O)c2cnc(Nc3ccc(N4CCN(C)CC4)cc3)nc2n1-c1cccc(C(C)(C)O)n1 [AZD1775] (first compound max 1 µM, partner max 1 µM), the “combination Emax” value (NB10 (Neuroblastoma)) was 0.749, the “combination Emax” value [1] was 0.451 and the “combination Emax” value [2] was 0.572. The “combination Emax” value [3] was 0.578, the “combination Emax” value [4] was 0.813 and the “combination Emax” value (ES4 (Ewing's Sarcoma)) was 0.758. For the same compound, the “combination Emax” value (HOS (Osteosarcoma)) was 0.501, the “combination Emax” value [5] was 0.421 and the “combination Emax” value [6] was 0.941. For the same compound, the “combination Emax” value [7] was 0.908, the “combination Emax” value [8] was 0.517 and the “combination Emax” value [9] was 0.822. The “combination Emax” value (42-MG-BA (Glioblastoma)) was 0.688, the “combination Emax” value (T98G (Glioblastoma)) was 0.717 and the “combination Emax” value [10] was 0.505. The “combination Emax” value [11] was 1, the “combination Emax” value [12] was 0.393 and the “combination Emax” value [13] was 1. For the same compound, the “combination Emax” value [14] was 1 and the “combination Emax” value [15] was 0.83.

In the case of COc1nnc2ccc(N3CCC(c4ccc(OCCN5CCN(C)C(=O)[C@H]5C)cc4)CC3)nn12 [AZD5153] + CC1(C)CCC(CN2CCN(c3ccc(C(=O)NS(=O)(=O)c4ccc(NCC5CCOCC5)c([N+](=O)[O-])c4)c(Oc4cnc5[nH]ccc5c4)c3)CC2)=C(c2ccc(Cl)cc2)C1 [Venetoclax] (first compound max 1 µM, 7x7, partner max 1 µM), the “combination Emax” value (NB10 (Neuroblastoma)) is reported as 0.527, the “combination Emax” value [1] is reported as 0.407 and the “combination Emax” value [2] is reported as 1. For the same compound, the “combination Emax” value [3] was 0.252, the “combination Emax” value [4] was 0.682 and the “combination Emax” value (ES4 (Ewing's Sarcoma)) was 0.616. The “combination Emax” value (HOS (Osteosarcoma)) was 0.454, the “combination Emax” value [5] was 0.411 and the “combination Emax” value [6] was 0.579. The “combination Emax” value [7] was 0.487, the “combination Emax” value [8] was 0.242 and the “combination Emax” value [9] was 0.761. For the same compound, the “combination Emax” value (42-MG-BA (Glioblastoma)) was 0.56, the “combination Emax” value (T98G (Glioblastoma)) was 0.491 and the “combination Emax” value [10] was 0.404. The “combination Emax” value [11] was 0.589, the “combination Emax” value [12] was 0.278 and the “combination Emax” value [13] was 0.562. The “combination Emax” value [14] was 0.809 and the “combination Emax” value [15] was 0.747.

COc1nnc2ccc(N3CCC(c4ccc(OCCN5CCN(C)C(=O)[C@H]5C)cc4)CC3)nn12 [AZD5153] + CCN(CCO)CCCOc1ccc2c(Nc3cc(CC(=O)Nc4cccc(F)c4)[nH]n3)ncnc2c1 [AZD2811] (first compound max 1 µM, 7x7, partner max 1 µM) was tested, and the “combination Emax” value (NB10 (Neuroblastoma)) was 0.571, the “combination Emax” value [1] was 0.402 and the “combination Emax” value [2] was 0.434. For the same compound, the “combination Emax” value [3] was 0.366, the “combination Emax” value [4] was 0.815 and the “combination Emax” value (ES4 (Ewing's Sarcoma)) was 0.685. For the same compound, the “combination Emax” value (HOS (Osteosarcoma)) was 0.486, the “combination Emax” value [5] was 0.489 and the “combination Emax” value [6] was 0.941. The “combination Emax” value [7] was 0.606, the “combination Emax” value [8] was 0.256 and the “combination Emax” value [9] was 0.771. For the same compound, the “combination Emax” value (42-MG-BA (Glioblastoma)) was 0.783, the “combination Emax” value (T98G (Glioblastoma)) was 0.491 and the “combination Emax” value [10] was 0.484. For the same compound, the “combination Emax” value [11] was 0.666, the “combination Emax” value [12] was 0.459 and the “combination Emax” value [13] was 0.993. For the same compound, the “combination Emax” value [14] was 0.905 and the “combination Emax” value [15] was 0.738.
